The results in this text go back to the supplement of paper PMC11208160.

The nature of the series: recombinant barcode read abundance after kanamycin selection (control-corrected) (log10(CPM+1)); higher = more efficient recombination; sequences stand for … in AGTGCAGAGAAAATCGGCCAGTTTTCTCTGCCTGCAGTCCGCATGCCGT…AGATTTATGCAGCGGACTGCCTTTCTCCCAAAGTGATAAACCGGACAGTATCATGGACCGGTTTTCCCGGTAATCCGTATTTGCAAGGTTGGTTTCACT; site = the 11-nt target. As to the method:
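Pooled E. coli target-specificity screen for the IS621 bridge recombinase. Each library plasmid pairs an 11-nt target (CT core) with a bridge RNA whose target-binding loop (9-nt LTG + 4-nt RTG) is reprogrammed; the rest of the 177-nt WT IS621 bridge RNA scaffold is fixed. The plasmid is co-electroporated with a WT donor plasmid; recombinase is induced with 0.1 mM IPTG and recombinants are selected on kanamycin. Recombinant barcodes are sequenced, converted to CPM, averaged over two biological replicates and corrected by the unselected control CPM. Molecule = full bridge RNA written as DNA: LTG = specificity nt 1-9, RTG = reverse complement of specificity nt 8-11, in the WT scaffold.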
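Note: IS621 recombinase and bridge RNA in Escherichia coli cells.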

In the case of “ACTTCTTCTTGGGTTCTAACCTGTTGCCT (site ACTTCTACTCG)”, the “recombinant barcode read abundance (log10)” value came to 0.124.

With “ACTTCTTCTTGGGTTCTAACCTGTTGCCT (site ACTTCTTCTAG)”, the “recombinant barcode read abundance (log10)” value worked out at 0.0747.

Consider “ACTTGCTCTTGGGTTCTAACCTGTTGCTT (site ACTAGCTCTAG)”, for which the “recombinant barcode read abundance (log10)” value was determined as 0.448.

“ACTTGCTCTTGGGTTCTAACCTGTTGCTT (site ACTTGCTCTAA)”: the “recombinant barcode read abundance (log10)” value stood at 0.136.

“ACTTGGACTTGGGTTCTAACCTGTTGCAT (site ACTTGGACTAT)”: the “recombinant barcode read abundance (log10)” value worked out at 1.79.

As to “ACTTGGACTTGGGTTCTAACCTGTTGCAT (site ACTTGTACTAT)”, the “recombinant barcode read abundance (log10)” value was 0.0581.

Turning to “ACTTGGCCTTGGGTTCTAACCTGTTGCTG (site ACGTGGCCTCA)”, the “recombinant barcode read abundance (log10)” value was determined as 0.111.

As for “ACTTGGCCTTGGGTTCTAACCTGTTGCTG (site ACTTGGCCTCA)”, the “recombinant barcode read abundance (log10)” value was 0.0699.

In the case of “ACTTTCCCTTGGGTTCTAACCTGTTGCCT (site ACTTTCCCTAG)”, the “recombinant barcode read abundance (log10)” value was found to be 0.424.

With “ACTTTCCCTTGGGTTCTAACCTGTTGCCT (site GCTTTGCCTAG)”, the “recombinant barcode read abundance (log10)” value worked out at 0.0175.

As for “AGAAGCACTTGGGTTCTAACCTGTTGCCA (site AGAAGCACTTG)”, the “recombinant barcode read abundance (log10)” value turned out to be 0.783.

For the sequence “AGAAGCACTTGGGTTCTAACCTGTTGCCA (site CTGTCTCCTAC)”, the “recombinant barcode read abundance (log10)” value is 0.00729.

“AGAAGCCCTTGGGTTCTAACCTGTTGCCT (site AAAAGCCCTAG)”: the “recombinant barcode read abundance (log10)” value was 0.134.

For the sequence “AGAAGCCCTTGGGTTCTAACCTGTTGCCT (site ACAAGCCCTAG)”, the “recombinant barcode read abundance (log10)” value stood at 0.269.

“AGAAGCCCTTGGGTTCTAACCTGTTGCCT (site AGAAGCCCTAG)”: the “recombinant barcode read abundance (log10)” value worked out at 1.51.

In the case of “AGAAGCCCTTGGGTTCTAACCTGTTGCCT (site ATAAGCCCTAG)”, the “recombinant barcode read abundance (log10)” value amounted to 0.0722.

In the case of “AGAAGTCCTTGGGTTCTAACCTGTTGCCG (site AGAAGTCCTCA)”, the “recombinant barcode read abundance (log10)” value amounted to 0.236.

In the case of “AGAAGTCCTTGGGTTCTAACCTGTTGCCG (site AGAAGTCCTCC)”, the “recombinant barcode read abundance (log10)” value turned out to be 0.121.

For “AGAAGTCCTTGGGTTCTAACCTGTTGCCG (site AGAAGTCCTCG)”, the “recombinant barcode read abundance (log10)” value worked out at 0.971.

Take “AGAAGTCCTTGGGTTCTAACCTGTTGCCG (site AGAAGTCCTCT)”: the “recombinant barcode read abundance (log10)” value worked out at 0.221.

“AGAATAGCTTGGGTTCTAACCTGTTGCAG (site AGAATAGCTCT)”: the “recombinant barcode read abundance (log10)” value amounted to 2.13.

For the sequence “AGAATAGCTTGGGTTCTAACCTGTTGCAG (site AGGATAGCTCA)”, the “recombinant barcode read abundance (log10)” value is 0.0664.

As to “AGAATGTCTTGGGTTCTAACCTGTTGCCT (site AGAACGTCTAG)”, the “recombinant barcode read abundance (log10)” value was 0.0676.

For “AGAATGTCTTGGGTTCTAACCTGTTGCCT (site AGAATGTCTAG)”, the “recombinant barcode read abundance (log10)” value amounted to 1.98.

On to “AGACCTCCTTGGGTTCTAACCTGTTGCTT (site AGACATCCTAA)”, for which the “recombinant barcode read abundance (log10)” value was 0.0481.

Take “AGACCTCCTTGGGTTCTAACCTGTTGCTT (site AGACCTCCTAA)”: the “recombinant barcode read abundance (log10)” value was 1.39.

For “AGACCTCCTTGGGTTCTAACCTGTTGCTT (site AGACGTCCTAA)”, the “recombinant barcode read abundance (log10)” value was 0.138.

Regarding “AGACCTCCTTGGGTTCTAACCTGTTGCTT (site AGACTTCCTAA)”, the “recombinant barcode read abundance (log10)” value is 0.0176.

For the sequence “AGACCTTCTTGGGTTCTAACCTGTTGCCT (site ACACCGTCTAG)”, the “recombinant barcode read abundance (log10)” value came to 0.0168.

Regarding “AGACCTTCTTGGGTTCTAACCTGTTGCCT (site AGACCTTCTAG)”, the “recombinant barcode read abundance (log10)” value is 1.55.

Consider “AGACGTACTTGGGTTCTAACCTGTTGCGT (site AGACGTACTAC)”, for which the “recombinant barcode read abundance (log10)” value came out at 1.82.

As for “AGACGTACTTGGGTTCTAACCTGTTGCGT (site TAGTTATCTTA)”, the “recombinant barcode read abundance (log10)” value was determined as 0.102.

Turning to “AGAGAGACTTGGGTTCTAACCTGTTGCAC (site AGAGAGACTGT)”, the “recombinant barcode read abundance (log10)” value was determined as 2.18.

“AGAGAGACTTGGGTTCTAACCTGTTGCAC (site TGATAGACTGT)”: the “recombinant barcode read abundance (log10)” value came to 0.169.

Regarding “AGAGAGACTTGGGTTCTAACCTGTTGCCT (site AGAGAGACTAG)”, the “recombinant barcode read abundance (log10)” value was found to be 2.43.

As to “AGAGAGACTTGGGTTCTAACCTGTTGCCT (site AGAGCGACTAG)”, the “recombinant barcode read abundance (log10)” value was determined as 0.0685.

Consider “AGAGAGACTTGGGTTCTAACCTGTTGCCT (site AGAGGGACTAG)”, for which the “recombinant barcode read abundance (log10)” value amounted to 0.27.

In the case of “AGAGAGACTTGGGTTCTAACCTGTTGCCT (site AGAGTGACTAG)”, the “recombinant barcode read abundance (log10)” value came to 0.185.

For the sequence “AGAGCCTCTTGGGTTCTAACCTGTTGCTA (site AGAGCCTCTTA)”, the “recombinant barcode read abundance (log10)” value turned out to be 2.36.

As for “AGAGCCTCTTGGGTTCTAACCTGTTGCTA (site TTCAGGGCTCT)”, the “recombinant barcode read abundance (log10)” value was 0.0371.

“AGATCATCTTGGGTTCTAACCTGTTGCTT (site AGACCATCTAG)”: the “recombinant barcode read abundance (log10)” value turned out to be 0.0425.

For the sequence “AGATCATCTTGGGTTCTAACCTGTTGCTT (site AGATCATCTAA)”, the “recombinant barcode read abundance (log10)” value was found to be 0.278.

With “AGATCCGCTTGGGTTCTAACCTGTTGCCT (site AGATCCGCTAG)”, the “recombinant barcode read abundance (log10)” value came out at 1.3.

For “AGATCCGCTTGGGTTCTAACCTGTTGCCT (site CGGTCCGCTAG)”, the “recombinant barcode read abundance (log10)” value worked out at 0.346.

Consider “AGATCTCCTTGGGTTCTAACCTGTTGCCT (site AGAGCTCCTCG)”, for which the “recombinant barcode read abundance (log10)” value came out at 0.231.

Turning to “AGATCTCCTTGGGTTCTAACCTGTTGCCT (site AGATCTCCTAG)”, the “recombinant barcode read abundance (log10)” value amounted to 0.313.

Regarding “AGATGGCCTTGGGTTCTAACCTGTTGCAT (site AGATGGACTCT)”, the “recombinant barcode read abundance (log10)” value is 0.152.

With “AGATGGCCTTGGGTTCTAACCTGTTGCAT (site AGATGGCCTAT)”, the “recombinant barcode read abundance (log10)” value was found to be 0.991.

As for “AGATGTACTTGGGTTCTAACCTGTTGCTG (site ACATGTACTCT)”, the “recombinant barcode read abundance (log10)” value is 0.0665.

On to “AGATGTACTTGGGTTCTAACCTGTTGCTG (site AGATGTACTCA)”, for which the “recombinant barcode read abundance (log10)” value was 0.958.

Consider “AGATTAGCTTGGGTTCTAACCTGTTGCCG (site AGATTAGCTCG)”, for which the “recombinant barcode read abundance (log10)” value was 1.13.

“AGATTAGCTTGGGTTCTAACCTGTTGCCG (site GCGGATCCTTA)”: the “recombinant barcode read abundance (log10)” value was found to be 0.0251.

Take “AGATTTCCTTGGGTTCTAACCTGTTGCCT (site AAATTTCCTAG)”: the “recombinant barcode read abundance (log10)” value is 0.0272.

As to “AGATTTCCTTGGGTTCTAACCTGTTGCCT (site ACATTTCCTAG)”, the “recombinant barcode read abundance (log10)” value was determined as 0.218.

As to “AGATTTCCTTGGGTTCTAACCTGTTGCCT (site AGATTTCCTAG)”, the “recombinant barcode read abundance (log10)” value was 0.326.

For the sequence “AGATTTCCTTGGGTTCTAACCTGTTGCCT (site ATATTTCCTAG)”, the “recombinant barcode read abundance (log10)” value amounted to 0.234.

Regarding “AGCAACCCTTGGGTTCTAACCTGTTGCAA (site AGCAACCCTTT)”, the “recombinant barcode read abundance (log10)” value came out at 0.829.

Consider “AGCAACCCTTGGGTTCTAACCTGTTGCAA (site CCGGGTACTCG)”, for which the “recombinant barcode read abundance (log10)” value was found to be 0.0862.

“AGCACAACTTGGGTTCTAACCTGTTGCCT (site AGAACAACTAG)”: the “recombinant barcode read abundance (log10)” value stood at 0.0799.

As for “AGCACAACTTGGGTTCTAACCTGTTGCCT (site AGCACAACTAG)”, the “recombinant barcode read abundance (log10)” value worked out at 0.734.

Take “AGCACAACTTGGGTTCTAACCTGTTGCCT (site AGGACAACTAG)”: the “recombinant barcode read abundance (log10)” value came out at 0.0445.

“AGCACAACTTGGGTTCTAACCTGTTGCCT (site AGTACAACTAG)”: the “recombinant barcode read abundance (log10)” value was found to be 0.498.

For “AGCAGAGCTTGGGTTCTAACCTGTTGCAG (site AGCAGAGCTCA)”, the “recombinant barcode read abundance (log10)” value came to 0.631.

With “AGCAGAGCTTGGGTTCTAACCTGTTGCAG (site AGCAGAGCTCC)”, the “recombinant barcode read abundance (log10)” value amounted to 0.224.

In the case of “AGCAGAGCTTGGGTTCTAACCTGTTGCAG (site AGCAGAGCTCG)”, the “recombinant barcode read abundance (log10)” value amounted to 0.505.

Take “AGCAGAGCTTGGGTTCTAACCTGTTGCAG (site AGCAGAGCTCT)”: the “recombinant barcode read abundance (log10)” value worked out at 2.24.

In the case of “AGCAGAGCTTGGGTTCTAACCTGTTGCCG (site AGCAGAGCTCA)”, the “recombinant barcode read abundance (log10)” value amounted to 0.0348.

Take “AGCAGAGCTTGGGTTCTAACCTGTTGCCG (site AGCAGAGCTCC)”: the “recombinant barcode read abundance (log10)” value turned out to be 0.058.

Regarding “AGCAGAGCTTGGGTTCTAACCTGTTGCCG (site AGCAGAGCTCG)”, the “recombinant barcode read abundance (log10)” value is 1.15.

On to “AGCAGAGCTTGGGTTCTAACCTGTTGCCG (site AGCAGAGCTCT)”, for which the “recombinant barcode read abundance (log10)” value was 0.465.

For the sequence “AGCAGTGCTTGGGTTCTAACCTGTTGCCT (site AGCAGTGCTAG)”, the “recombinant barcode read abundance (log10)” value turned out to be 0.686.

For “AGCAGTGCTTGGGTTCTAACCTGTTGCCT (site AGCATTCCTAG)”, the “recombinant barcode read abundance (log10)” value was 0.0332.

For “AGCATCCCTTGGGTTCTAACCTGTTGCTG (site AGCATCCCTCA)”, the “recombinant barcode read abundance (log10)” value is 1.47.
